In patent publication US8088930B2, “Benzimidazole derivatives” (Hoffmann-La Roche Inc., priority 2008, dated 2012):

Molecular target: T1, FXR ligand binding domain (GST-FXR LBD fusion protein, human FXR aa 193-473) (Homo sapiens, UniProt Q96RI1)
T1 construct: fused on or other part: Glutathione-S-transferase (GST) fused N-terminally to the FXR LBD, used to capture the protein on glutathione SPA beads
T1 sequence (Q96RI1 211-486 limits assumed): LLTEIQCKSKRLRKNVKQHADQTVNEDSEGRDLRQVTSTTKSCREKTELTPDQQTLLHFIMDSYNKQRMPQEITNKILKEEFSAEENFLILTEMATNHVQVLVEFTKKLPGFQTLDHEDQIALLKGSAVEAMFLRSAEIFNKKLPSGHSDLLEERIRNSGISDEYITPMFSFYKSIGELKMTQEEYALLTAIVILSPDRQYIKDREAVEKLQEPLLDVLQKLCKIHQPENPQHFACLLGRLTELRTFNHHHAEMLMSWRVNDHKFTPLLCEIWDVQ
Test: Radioligand binding assay (scintillation proximity, radioligand displacement)
Settings: 40 nM GST-FXR LBD on SPA beads, test compound 6×10^−9 M to 2.5×10^−5 M, read-out: h-IC50 Binding
Outline: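 40 nM GST-FXR LBD, E. coli-expressed, bound to glutathione yttrium silicate SPA beads in 50 mM Hepes pH 7.4, 10 mM NaCl, 5 mM MgCl2, 0.01% CHAPS. Test compounds displace radioligand (e.g. 20 nM benzimidazolyl-acetamide ligand); bound ligand measured by scintillation proximity counting.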

| Compound | IC50 |
| --- | --- |
| Cc1cc(C(=O)O)cc(C)c1OCC(C1CCCCC1)n1c(-c2ccc(Cl)cc2)nc2cc(F)c(F)cc21 (stereo not shown) [Example 53, 4-{2-[2-(4-Chloro-phenyl)-5,6-difluoro-benzoimidazol-1-yl]-2-cyclohexyl-ethoxy}-3,5-dimethyl-benzoic acid] | 30 nM |
| Fc1cc2nc(-c3ccc(Cl)cc3)n(C(COc3ccc(-c4nnn[nH]4)cn3)C3CCCCC3)c2cc1F (stereo not shown) [Example 56, 2-(4-Chloro-phenyl)-1-{1-cyclohexyl-2-[5-(1H-tetrazol-5-yl)-pyridin-2-yloxy]-ethyl}-5,6-difluoro-1H-benzoimidazole] | 50 nM |
| CC(C)(OCc1ccc(C(=O)O)cc1)C(C1CCCCC1)n1c(-c2ccc(Cl)cc2)nc2cc(F)c(F)cc21 (stereo not shown) [Example 57, 4-{2-[2-(4-Chloro-phenyl)-5,6-difluoro-benzoimidazol-1-yl]-2-cyclohexyl-1,1-dimethyl-ethoxymethyl}-benzoic acid] | 100 nM |
| O=C(O)c1ccc(COCC(C2CCCCC2)n2c(-c3ccc(Cl)cc3)nc3cc(F)c(F)cc32)cc1 (stereo not shown) [Example 58, 4-{2-[2-(4-Chloro-phenyl)-5,6-difluoro-benzoimidazol-1-yl]-2-cyclohexyl-ethoxymethyl}-benzoic acid] | 100 nM |
| O=C(O)c1ccc(COCC(C2CCCCC2)n2c(-c3ccc(Cl)cc3)nc3cc(F)c(F)cc32)c(F)c1 (stereo not shown) [Example 59, 4-{2-[2-(4-Chloro-phenyl)-5,6-difluoro-benzoimidazol-1-yl]-2-cyclohexyl-ethoxymethyl}-3-fluoro-benzoic] | 60 nM |
| Cc1cc(OCC(C2CCCCC2)n2c(-c3ccc(Cl)cc3)nc3cc(F)c(F)cc32)cc(C)c1C(=O)O (stereo not shown) [Example 61, 4-{2-[2-(4-Chloro-phenyl)-5,6-difluoro-benzoimidazol-1-yl]-2-cyclohexyl-ethoxy}-2,6-dimethyl-benzoic acid] | 1400 nM |
| Fc1cc2nc(-c3ccc(Cl)cc3)n(C(COc3ccc(-c4nnn[nH]4)cc3F)C3CCCCC3)c2cc1F (stereo not shown) [Example 66, 2-(4-Chloro-phenyl)-1-{1-cyclohexyl-2-[2-fluoro-4-(1H-tetrazol-5-yl)-phenoxy]-ethyl}-5,6-difluoro-1H-benzoimidazole] | 10 nM |
| Cc1cc(-c2nnn[nH]2)cc(C)c1OCC(C1CCCCC1)n1c(-c2ccc(Cl)cc2)nc2cc(F)c(F)cc21 (stereo not shown) [Example 70, 2-(4-Chloro-phenyl)-1-{1-cyclohexyl-2-[2,6-dimethyl-4-(1H-tetrazol-5-yl)-phenoxy]-ethyl}-5,6-difluoro-1H-benzoimidazole] | 10 nM |

More lines, now with the values ahead:

| IC50 | Compound |
| --- | --- |
| 100 nM | COc1ccc(-c2nc3cc(F)c(F)cc3n2C(COc2ccc(C(=O)O)cc2F)C2CCCCC2)c(OC)n1 (stereo not shown) [Example 46, 4-{2-Cyclohexyl-2-[2-(2,6-dimethoxy-pyridin-3-yl)-5,6-difluoro-benzoimidazol-1-yl]-ethoxy}-3-fluoro-benzoic acid] |
| 100 nM | O=C(O)C1(Oc2ccc(OCC(C3CCCCC3)n3c(-c4ccc(Cl)cc4)nc4cc(F)c(F)cc43)nc2)CC1 (stereo not shown) [Example 50, 1-(6-{2-[2-(4-Chloro-phenyl)-5,6-difluoro-benzoimidazol-1-yl]-2-cyclohexyl-ethoxy}-pyridin-3-yloxy)-cyclopropanecarboxylic acid] |
| 500 nM | COc1cc(C(=O)O)ccc1COCC(C1CCCCC1)n1c(-c2ccc(Cl)cc2)nc2cc(F)c(F)cc21 (stereo not shown) [Example 60, 4-{2-[2-(4-Chloro-phenyl)-5,6-difluoro-benzoimidazol-1-yl]-2-cyclohexyl-ethoxymethyl}-3-methoxy-benzoic acid] |
| 2500 nM | O=C(O)c1ccc(COCC(C2CCCCC2)n2c(-c3ccc(Cl)cc3)nc3cc(F)c(F)cc32)nc1 (stereo not shown) [Example 67, 6-{2-[2-(4-Chloro-phenyl)-5,6-difluoro-benzoimidazol-1-yl]-2-cyclohexyl-ethoxymethyl}-nicotinic acid] |
| 100 nM | COc1ccc(-c2nc3cc(F)c(F)cc3n2C(COc2ccc(C(=O)O)cn2)C2CCCCC2)c(OC)n1 (stereo not shown) [Example 73, 6-{2-Cyclohexyl-2-[2-(2,6-dimethoxy-pyridin-3-yl)-5,6-difluoro-benzoimidazol-1-yl]-ethoxy}-nicotinic acid] |
